{"source": "paper PMC6464118", "about": "(European journal of medicinal chemistry, 2019)"}
{"test_system": "HIV-1 NL4-3 Nanoluc-sec virus", "experiment": "not given", "format": "cell-based", "conditions": "CC50 (MT4) / EC50 (NL4-3)"}
{"compound": "CC(=O)O[C@H]1[C@@H](OC(C)=O)[C@@]2(C)[C@@H]3CC[C@H]4C(C)(C)[C@@H](O[C@@H]5OC[C@@H](O)[C@H](O)[C@H]5O)CC[C@@]45C[C@@]35CC[C@@]23CO[C@@]2(C(C)(C)O)CC[C@](C)(O2)[C@@H]13", "note": "[Compound 1, beesioside I]", "TI: CC50/EC50": "> 17.2"}
{"compound": "CC1(C)[C@@H](O[C@@H]2OC[C@@H](O)[C@H](O)[C@H]2O)CC[C@]23C[C@]24CC[C@]25CO[C@@]6(C(C)(C)O)CC[C@](C)(O6)[C@H]2[C@@H](O)[C@@H](O)[C@@]5(C)[C@@H]4CC[C@@H]13", "note": "[Compound 1a, (20S,24S)-18,24;20,24-Diepoxy-9,19-cyclolanostane-3β, 15β, 16β,25-tetraol 3-O-β-D-xylopyrano-side]", "TI: CC50/EC50": "> 5.2"}
{"compound": "CC(=O)O[C@H]1[C@@H](O)[C@@]2(C)[C@@H]3CC[C@H]4C(C)(C)[C@@H](O[C@@H]5OC[C@@H](O)[C@H](O)[C@H]5O)CC[C@@]45C[C@@]35CC[C@@]23CO[C@@]2(C(C)(C)O)CC[C@](C)(O2)[C@@H]13", "note": "[Compound 2, beesioside K]", "TI: CC50/EC50": "> 8.6"}
{"compound": "CC(=O)O[C@H]1[C@H](O)[C@H]([C@]2(C)CC[C@@H](C(C)(C)O)O2)[C@@]2(C)CC[C@@]34C[C@@]35CC[C@H](O[C@@H]3OC[C@@H](O)[C@H](O)[C@H]3O)C(C)(C)[C@@H]5CC[C@H]4[C@]12C", "note": "[Compound 4, beesioside M]", "TI: CC50/EC50": "> 8.2"}
{"compound": "CC(=O)O[C@H]1[C@@H](OC(C)=O)[C@@]2(C)[C@@H]3CC[C@H]4C(C)(C)[C@@H](OC(C)=O)CC[C@@]45C[C@@]35CC[C@@]23CO[C@@]2(C(C)(C)O)CC[C@](C)(O2)[C@@H]13", "note": "[Compound 13a, (20S, 24S)-15β, 16β-Diacetoxy-18,24;20,24-diepoxy-9,19-cyclolanostane-25-hydroxy-3β-yl acetate]", "TI: CC50/EC50": "> 16.4"}
{"compound": "CC(=O)O[C@H]1[C@@H](OC(C)=O)[C@@]2(C)[C@@H]3CC[C@H]4C(C)(C)[C@@H](OC(=O)CCC(=O)O)CC[C@@]45C[C@@]35CC[C@@]23CO[C@@]2(C(C)(C)O)CC[C@](C)(O2)[C@@H]13", "note": "[Compound 13e, (20S,24S)-15β,16β-Diacetoxy-18,24;20,24-diepoxy-9,19-cyclolanostane-3β,25-diol 3-O-succinate]", "TI: CC50/EC50": "> 5.2"}
{"compound": "CC(=O)O[C@H]1[C@@H](OC(C)=O)[C@@]2(C)[C@@H]3CC[C@H]4C(C)(C)[C@@H](OC(=O)CC(C)C(=O)O)CC[C@@]45C[C@@]35CC[C@@]23CO[C@@]2(C(C)(C)O)CC[C@](C)(O2)[C@@H]13", "note": "(stereo partly drawn) [Compound 13f, (RS-3′-20S, 24S)-15β,16β-Diacetoxy-18,24;20,24-diepoxy-9,19-cyclolanostane-3β, 25-diol 3-O-3′-methylsuccinate]", "TI: CC50/EC50": "> 18.0"}
{"compound": "CC(=O)O[C@H]1[C@@H](OC(C)=O)[C@@]2(C)[C@@H]3CC[C@H]4C(C)(C)[C@@H](OC(=O)CCC(C)(C)C(=O)O)CC[C@@]45C[C@@]35CC[C@@]23CO[C@@]2(C(C)(C)O)CC[C@](C)(O2)[C@@H]13", "note": "[Compound 13j, (20S, 24S)-15β,16β-Diacetoxy-18,24;20,24-diepoxy-9,19-cyclolanostane-3β, 25-diol 3-O-4',4'-dimethylglutarate]", "TI: CC50/EC50": "> 104"}
{"compound": "CC(=O)O[C@H]1[C@@H](OC(C)=O)[C@@]2(C)[C@@H]3CC[C@H]4C(C)(C)[C@@H](OC(=O)CC5(CC(=O)O)CCCC5)CC[C@@]45C[C@@]35CC[C@@]23CO[C@@]2(C(C)(C)O)CC[C@](C)(O2)[C@@H]13", "note": "[Compound 13l, (20S,24S)-15β,16β-Diacetoxy-18,24;20,24-diepoxy-9,19-cyclolanostane-3β,25-diol 3-O-3′,3′-tetramethyleneglutarate]", "TI: CC50/EC50": "> 12.6"}
{"compound": "CC(=O)O[C@H]1[C@@H](OC(C)=O)[C@@]2(C)[C@@H]3CC[C@H]4C(C)(C)[C@@H](OC(=O)COCC(=O)O)CC[C@@]45C[C@@]35CC[C@@]23CO[C@@]2(C(C)(C)O)CC[C@](C)(O2)[C@@H]13", "note": "[Compound 13m, (20S,24S)-15β, 16β-Diacetoxy-18,24;20,24-diepoxy-9,19-cyclolanostane-3β,25-diol 3-O-diglycolate]", "TI: CC50/EC50": "> 41.7"}
{"test_system": "HIV-1 NL4-3 Nanoluc-sec virus", "experiment": "not given", "format": "cell-based", "conditions": "HIV-1 NL4-3 replication in MT4 cells"}
{"compound": "CC1(C)[C@@H](O[C@@H]2OC[C@@H](O)[C@H](O)[C@H]2O)CC[C@]23C[C@]24CC[C@]25CO[C@@]6(C(C)(C)O)CC[C@](C)(O6)[C@H]2[C@@H](O)[C@@H](O)[C@@]5(C)[C@@H]4CC[C@@H]13", "note": "[Compound 1a, (20S,24S)-18,24;20,24-Diepoxy-9,19-cyclolanostane-3β, 15β, 16β,25-tetraol 3-O-β-D-xylopyrano-side]", "anti-HIV activity in words": "less potent"}
{"compound": "CC(C)(O)[C@@H]1CC[C@@](C)([C@H]2[C@@H](O)[C@H](O)[C@@]3(C)[C@@H]4[C@@H](O)C[C@H]5C(C)(C)[C@@H](O[C@@H]6OC[C@@H](O)[C@H](O)[C@H]6O)CC[C@@]56C[C@@]46CC[C@]23C)O1", "note": "[Compound 5, soulieoside N]", "anti-HIV activity in words": "inactive"}
{"compound": "CC(=O)O[C@H]1[C@@H]2O[C@@]3(C(C)(C)O)CC[C@](C)(O3)[C@@H]2[C@@]2(CO)CC[C@@]34C[C@@]35CC[C@H](O[C@@H]3OC[C@@H](O)[C@H](O)[C@H]3O)C(C)(C)[C@@H]5CC[C@H]4[C@]12C", "note": "[Compound 9, (20S,24S)-15α-acetoxy-16β,24;20,24-diepoxy-3β-(β-D-xylopyranosyloxy)-9,19-cyclolanostane-18,25-diol]", "anti-HIV activity in words": "inactive"}
{"compound": "CC(=O)O[C@H]1[C@H](O)[C@@]2(C)[C@@H]3CC[C@H]4C(C)(C)[C@@H](O[C@@H]5OC[C@@H](O)[C@H](O)[C@H]5O)CC[C@@]45C[C@@]35CC[C@@]23CO[C@@](C)(CCC(=O)C(C)(C)O)[C@@H]13", "note": "[Compound 11, soulieoside O]", "anti-HIV activity in words": "inactive"}
{"compound": "CC(=O)O[C@H]1[C@@H](OC(C)=O)[C@@]2(C)[C@@H]3CC[C@H]4C(C)(C)[C@@H](O[C@@H]5OC[C@@H](O)[C@H](O)[C@H]5O)CC[C@@]45C[C@@]35CC[C@@]23CO[C@@](C)(CCC(=O)C(C)(C)O)[C@@H]13", "note": "[Compound 12, soulieoside P]", "anti-HIV activity in words": "inactive"}
{"compound": "CC(=O)O[C@H]1[C@@H](OC(C)=O)[C@@]2(C)[C@@H]3CC[C@H]4C(C)(C)[C@@H](O)CC[C@@]45C[C@@]35CC[C@@]23CO[C@@]2(C(C)(C)O)CC[C@](C)(O2)[C@@H]13", "note": "[Compound 13, (20S,24S)-15β, 16β-Diacetoxy-18,24;20,24-diepoxy-9,19-cyclolanostane-3β,25-diol]", "anti-HIV activity in words": "inactive"}
{"compound": "CC1(C)[C@@H](O)CC[C@]23C[C@]24CC[C@]25CO[C@@]6(C(C)(C)O)CC[C@](C)(O6)[C@H]2[C@@H](O)[C@@H](O)[C@@]5(C)[C@@H]4CC[C@@H]13", "note": "[Compound 13d, (20S, 24S)-18,24;20,24-Diepoxy-9,19-cyclolanostane-3β, 15β, 16β, 25-tetraol]", "anti-HIV activity in words": "inactive"}
{"test_system": "HIV-1 NL4-3 Nanoluc-sec virus", "experiment": "not given", "format": "cell-based", "conditions": "relative to compound 1"}
{"compound": "CC(=O)O[C@H]1[C@@H](OC(C)=O)[C@@]2(C)[C@@H]3CC[C@H]4C(C)(C)[C@@H](OC(=O)CC(C)(C)C(=O)O)CC[C@@]45C[C@@]35CC[C@@]23CO[C@@]2(C(C)(C)O)CC[C@](C)(O2)[C@@H]13", "note": "[Compound 13g, (20S, 24S)-15β,16β-Diacetoxy-18,24;20,24-diepoxy-9,19-cyclolanostane-3β, 25-diol 3-O-3′,3′-dimethylsuccinate]", "fold more potent than 1 (anti-HIV activity)": "approximately 100 fold"}
{"test_system": "bevirimat-resistant HIV viruses NL4-3-V370A", "experiment": "Activity against bevirimat-resistant HIV virus NL4-3-V370A", "format": "cell-based", "conditions": "not given"}
{"compound": "CC(=O)O[C@H]1[C@@H](OC(C)=O)[C@@]2(C)[C@@H]3CC[C@H]4C(C)(C)[C@@H](OC(=O)CC(C)(C)C(=O)O)CC[C@@]45C[C@@]35CC[C@@]23CO[C@@]2(C(C)(C)O)CC[C@](C)(O2)[C@@H]13", "note": "[Compound 13g, (20S, 24S)-15β,16β-Diacetoxy-18,24;20,24-diepoxy-9,19-cyclolanostane-3β, 25-diol 3-O-3′,3′-dimethylsuccinate]", "activity against bevirimat-resistant HIV viruses NL4-3-V370A": "no significant effects"}
